Source: patent US20040006236A1, “Diaminopropionic acid derivatives” (priority 1999, published 2004)
Where a name gives a salt, the structure may show the parent alone. Read-outs that look alike come from different tables or passages of the source.

Tests used:
[1] = target: T1, LFA-1 binding to immobilized ICAM-1 (Homo sapiens, UniProt P05107+P20701); assay: LFA-1/ICAM-1 protein-protein assay (solid-phase ELISA); conditions: read-out: LFA-1/ICAM-1 Protein-Protein Assay IC50
T1 construct: made in house; host or cells: transfected 293 cells (LFA-1)
T1 sequence (P20701 26-1170): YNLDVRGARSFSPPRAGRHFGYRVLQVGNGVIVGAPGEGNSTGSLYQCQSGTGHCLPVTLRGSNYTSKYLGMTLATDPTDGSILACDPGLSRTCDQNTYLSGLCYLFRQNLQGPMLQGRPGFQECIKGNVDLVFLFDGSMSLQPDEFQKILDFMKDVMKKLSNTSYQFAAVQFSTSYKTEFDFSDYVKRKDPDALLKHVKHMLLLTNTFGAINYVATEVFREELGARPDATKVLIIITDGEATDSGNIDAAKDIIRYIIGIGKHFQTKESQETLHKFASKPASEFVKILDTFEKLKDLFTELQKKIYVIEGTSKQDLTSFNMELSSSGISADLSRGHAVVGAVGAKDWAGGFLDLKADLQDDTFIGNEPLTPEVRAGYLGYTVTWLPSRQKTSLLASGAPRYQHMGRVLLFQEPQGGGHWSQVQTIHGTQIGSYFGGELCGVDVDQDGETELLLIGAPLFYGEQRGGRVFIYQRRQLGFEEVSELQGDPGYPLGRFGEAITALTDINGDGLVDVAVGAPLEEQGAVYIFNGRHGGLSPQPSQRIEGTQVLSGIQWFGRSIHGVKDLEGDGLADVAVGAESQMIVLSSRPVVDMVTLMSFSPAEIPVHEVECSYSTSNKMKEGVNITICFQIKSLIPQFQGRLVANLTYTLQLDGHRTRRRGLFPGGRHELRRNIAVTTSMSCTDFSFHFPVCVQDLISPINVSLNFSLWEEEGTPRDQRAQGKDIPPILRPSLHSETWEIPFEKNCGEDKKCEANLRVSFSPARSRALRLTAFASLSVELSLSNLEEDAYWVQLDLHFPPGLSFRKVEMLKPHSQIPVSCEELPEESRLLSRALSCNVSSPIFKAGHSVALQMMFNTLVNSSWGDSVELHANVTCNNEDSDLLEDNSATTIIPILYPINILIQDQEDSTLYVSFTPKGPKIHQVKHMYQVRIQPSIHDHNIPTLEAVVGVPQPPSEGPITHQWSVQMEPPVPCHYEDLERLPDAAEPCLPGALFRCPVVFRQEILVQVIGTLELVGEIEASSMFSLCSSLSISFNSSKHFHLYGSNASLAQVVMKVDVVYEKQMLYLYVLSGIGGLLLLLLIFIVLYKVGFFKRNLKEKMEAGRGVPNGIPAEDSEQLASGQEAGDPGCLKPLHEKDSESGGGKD
T1 sequence (P05107 23-769): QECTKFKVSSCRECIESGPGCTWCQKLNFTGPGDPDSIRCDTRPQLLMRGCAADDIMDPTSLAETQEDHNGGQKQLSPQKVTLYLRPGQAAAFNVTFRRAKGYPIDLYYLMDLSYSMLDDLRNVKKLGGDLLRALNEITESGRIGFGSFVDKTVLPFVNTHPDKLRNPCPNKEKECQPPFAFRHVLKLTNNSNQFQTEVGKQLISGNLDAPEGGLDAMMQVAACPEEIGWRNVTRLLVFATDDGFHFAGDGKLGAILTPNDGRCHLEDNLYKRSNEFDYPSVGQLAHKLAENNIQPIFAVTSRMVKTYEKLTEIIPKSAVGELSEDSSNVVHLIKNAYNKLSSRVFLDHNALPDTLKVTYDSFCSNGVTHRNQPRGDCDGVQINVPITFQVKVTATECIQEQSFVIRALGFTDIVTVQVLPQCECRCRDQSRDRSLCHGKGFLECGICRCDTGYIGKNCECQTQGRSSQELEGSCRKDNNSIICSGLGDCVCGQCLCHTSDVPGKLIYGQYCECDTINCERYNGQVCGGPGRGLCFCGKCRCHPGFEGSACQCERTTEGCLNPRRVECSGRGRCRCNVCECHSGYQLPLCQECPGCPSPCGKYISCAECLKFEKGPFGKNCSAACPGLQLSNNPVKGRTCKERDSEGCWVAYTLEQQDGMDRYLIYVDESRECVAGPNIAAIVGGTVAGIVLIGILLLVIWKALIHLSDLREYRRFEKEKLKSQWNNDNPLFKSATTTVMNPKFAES
Description: (a) LFA-1/ICAM-1 screening test: LFA-1/ICAM-1 antagonist activity, defined as the ability of compounds of the invention to block LFA-1 binding to immobilized ICAM-1, was quantitated using a solid-phase ELISA.
(§1) Typically, fusion protein consisting of the entire extracellular domain of human ICAM-1 and the Fc domain of human IgG (5dICAM-Ig) was coated onto 96-well microtiter plates (0.15 μg in 100 μL PBS) overnight at 4° C. The plates were then blocked with 150 μL of 1% BSA/1 mM MnCl2/0.14 M NaCl/20 mM HEPES, pH 7.2 for 1 h at 37° C. and washed 3 times (150 μL each) with Wash Buffer (50 mM Tris, pH 7.4/100 mM NaCl/1 mM MnCl2/0.05% Tween 20). Stock solutions (100 μM in 100% DMSO) of test compounds were diluted 50 fold with 150 μL of Binding Buffer (0.05% BSA/0.05% Tween 20/1 mM MnCl2/0.14 M NaCl/20 mM HEPES, pH 7.2) plus 10% DMSO. […] Fifty μL per well of each dilution was added to the ICAM-1 coated plates, followed by 50 μL per well of membrane-bound LFA-1 (280 ng/mL in Binding Buffer) derived from transfected 293 cells. The plates were shaken vigorously for 1 min (room temperature) and gently for 2 h (37° C.). After incubation, the plates were washed 3 times (150 μL each) with Wash Buffer. Mouse anti-human integrin β2 monoclonal antibody was added (100 μL/well, 1 μg/mL in Binding Buffer) and allowed to incubate for 1 h (37° C.) with gentle agitation. The plates were then washed 3 times with Wash Buffer. HRP-conjugated goat anti-mouse IgG (100 μL/well, 1:1500 dilution in Binding Buffer) was added to each well, followed by incubation for 1 h (37° C.), and concluded by three washes (150 μL each) with Wash Buffer. TMB solution (100 μL per well) was added for color development (10 min). The reaction was stopped by the addition of 100 μL of 1 M H3PO4 to each well. The plates were then read at 450 nm. The inhibitory activities of test compounds were determined by the IC50s.
as §1, with “LFA-1/ICAM-1 antagonist activity, defined as the ability to block LFA-1 binding to immobilized ICAM-1, was quantitated using a solid-phase ELISA. Typically,” for “Typically,”, “(0.05 %” for “(0.05%”, “nm.” for “nm. The inhibitory activities of test compounds were determined by the IC50s.”

[2] = tested on: T lymphocyte proliferation (C57BI/6 spleen cells with irradiated BALB/c spleen cells); assay: Mixed lymphocyte reaction (MLR), one-way; type: cell-based, mice; conditions: read-out: MLR IC50
Source text: Admixture of murine spleen cells from two different inbred strains of mice induces proliferation of T lymphocytes. The magnitude of T cell proliferation depends on the extent of disparity in the major histocompatibility antigens between the two strains. Splenic T lymphocytes from both strains proliferate due to alloantigen recognition, a process for which the interaction of ICAM-1 on antigen-presenting cells with LFA-1 on lymphocytes is necessary. The ability of antagonists to inhibit T lymphocyte proliferation following recognition of alloantigens was assessed in a one-way MLR, where cells from one strain were irradiated to permit measurement of the proliferative response of cells from the other strain. Spleen cells were washed three times in tissue culture medium (TCM; see below). […] One hundred microliters of serial dilutions of antagonists or TCM were added to the spleen cell mixture. The total volume in each well was 200 μL. TCM was RPMI1640 containing 10% heat-inactivated fetal bovine serum, […] L-glutamine, 100 Units/ml each of penicillin and streptomycin and 5×10^−5 M 2-mercaptoethanol. Dilutions of antagonists were prepared in TCM. Plates were incubated in 5% CO2 for 3 days. On the third day, 0.5 μCi of tritiated thymidine (10 μCi/mL) was added to all the wells. Cells were harvested 6 h later on a 96-well plate harvester and the amount of tritiated thymidine incorporated was assessed in a liquid scintillation counter.

SMILES | IC50 [1] | IC50 ([2]; Mus musculus, T-lymphocyte) | IC50 ([2]; sodium salt)
COc1cc(C(=O)NC[C@H](NC(=O)c2ccc(C(=O)NCc3cccc(O)c3)cc2Cl)C(=O)O)nc2ccccc12 [Example 182] | 15 nM |  | 
O=C(Cc1ccccc1)NC[C@H](NC(=O)c1c(Cl)cccc1Cl)C(=O)O [Example 204] | 42 nM |  | 
O=C(Cc1ccc([N+](=O)[O-])cc1)NC[C@H](NC(=O)c1c(Cl)cccc1Cl)C(=O)O [Example 205] | 31 nM |  | 
O=C1CC[C@@H](C(=O)NC[C@H](NC(=O)c2c(Cl)cccc2Cl)C(=O)O)O1 [Example 208] | 23 nM |  | 
O=C(N[C@@H](CNC(=O)C1CC1)C(=O)O)c1c(Cl)cccc1Cl [Example 210] | 36 nM |  | 
O=C(N[C@@H](CNC(=O)C1CCC1)C(=O)O)c1c(Cl)cccc1Cl [Example 212] | 36 nM |  | 
O=C(N[C@@H](CNC(=O)C1CCCC1)C(=O)O)c1c(Cl)cccc1Cl [Example 213] | 31 nM |  | 
O=C(N[C@@H](CNC(=O)C1CCCCC1)C(=O)O)c1c(Cl)cccc1Cl [Example 215] | 35 nM |  | 
O=C(/C=C/c1cccs1)NC[C@H](NC(=O)c1c(Cl)cccc1Cl)C(=O)O [Example 218] | 33 nM |  | 
COc1cccc(C(=O)NC[C@H](NC(=O)c2c(Cl)cccc2Cl)C(=O)O)c1 [Example 221] | 24 nM |  | 
O=C(NC[C@H](NC(=O)c1c(Cl)cccc1Cl)C(=O)O)c1ccc2[nH]ccc2c1 [Example 225] | 31 nM |  | 
Cc1cccc(C(=O)NC[C@H](NC(=O)c2c(Cl)cccc2Cl)C(=O)O)n1 [Example 227] | 21 nM | 8550 nM | 
N[C@H](Cc1ccc(O)cc1)C(=O)NC[C@H](NC(=O)c1ccc(C(=O)NCc2cccc(O)c2)cc1Cl)C(=O)O [Example 274] | 4.4 nM | 3700 nM | 
N[C@H](CC(=O)O)C(=O)NC[C@H](NC(=O)c1ccc(C(=O)NCc2cccc(O)c2)cc1Cl)C(=O)O [Example 275] | 2.2 nM | 540 nM | 
Nc1cccc(C(=O)NC[C@H](NC(=O)c2ccc(C(=O)NCc3cccc(O)c3)cc2Cl)C(=O)O)c1 [Example 288] | 1.2 nM | 210 nM | 
N[C@@H](CO)C(=O)NC[C@H](NC(=O)c1ccc(C(=O)NCc2cccc(O)c2)cc1Cl)C(=O)O [Example 292] | 5.4 nM | 3650 nM | 
O=C(NCc1cccc(O)c1)c1ccc(C(=O)N[C@@H](CNC(=O)c2ccccc2)C(=O)O)c(Cl)c1 [Example 304, 3-benzoylamino-N-[2-chloro-4-[[[(3-hydroxyphenyl)methyl]amino]carbonyl]benzoyl]-L-alanine, sodium salt] | 1.1 nM |  | 270 nM
CCCCS(=O)(=O)NC[C@H](NC(=O)c1ccc(C(=O)N[C@H](C)c2cccc3ccccc23)cc1Cl)C(=O)O [Example 361, 3-(1-butanesulfonylamino)-N-[2-chloro-4-[[[(1R)-1-(1-naphthalenyl)ethyl]amino]carbonyl]benzoyl]-L-alanine] | 42 nM | 21500 nM | 
Nc1cccc(C(=O)NCc2ccc(C(=O)N[C@@H](CNC(=O)c3ccccc3)C(=O)O)c(Cl)c2)c1 [Example 367] | 41 nM | 17000 nM | 
O=C(NCc1ccc(C(=O)N[C@@H](CNC(=O)c2ccccc2)C(=O)O)c(Cl)c1)c1cnc2ccccc2c1 [Example 370] | 40 nM | 11000 nM | 
